Measured values: PubChem BioAssay AID330 (DTP/NCI, 2004)
Values joined by “and” are separate entries in the source; they are usually repeats but may differ in a detail not shown here. Identical values can stand only once. Toxic doses and inconclusive results are not listed.

Test system: P388 leukemia ip, CD2F1 mice, survival T/C
Experiment: NCI In Vivo Anticancer Drug Screen. Data for tumor model P388 Leukemia (intraperitoneal) in CD2F1 (CDF1) mice
Conditions: endpoint: median survival time, higher = longer survival
In short: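 Mice carrying the transplanted tumor received test compound or vehicle. Survival was recorded in each group, and the value is the treated-group measurement divided by that of the vehicle-treated control group.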

[1] = dose: 50.0 mg/kg/injection, schedule: Q01DX009 (ip), vehicle: saline
[2] = dose: 100.0 mg/kg/injection, schedule: Q01DX009 (ip), vehicle: saline
[3] = dose: 200.0 mg/kg/injection, schedule: Q01DX009 (ip), vehicle: saline
[4] = dose: 50.0 mg/kg/injection, schedule: Q01DX009 (ip), vehicle: saline with Tween-80
[5] = dose: 100.0 mg/kg/injection, schedule: Q01DX009 (ip), vehicle: saline with Tween-80
[6] = dose: 200.0 mg/kg/injection, schedule: Q01DX009 (ip), vehicle: saline with Tween-80
[7] = dose: 50.0 mg/kg/injection, schedule: Q01DX005 (ip), vehicle: Klucel (hydroxypropylcellulose) (HPC)
[8] = dose: 100.0 mg/kg/injection, schedule: Q01DX005 (ip), vehicle: Klucel (hydroxypropylcellulose) (HPC)
[9] = dose: 200.0 mg/kg/injection, schedule: Q01DX005 (ip), vehicle: Klucel (hydroxypropylcellulose) (HPC)
[10] = dose: 25.0 mg/kg/injection, schedule: Q01DX009 (ip), vehicle: saline with Tween-80
[11] = dose: 50.0 mg/kg/injection, schedule: Q01DX005 (ip), vehicle: saline with Tween-80
[12] = dose: 100.0 mg/kg/injection, schedule: Q01DX005 (ip), vehicle: saline with Tween-80
[13] = dose: 200.0 mg/kg/injection, schedule: Q01DX005 (ip), vehicle: saline with Tween-80
[14] = dose: 60.0 mg/kg/injection, schedule: Q01DX005 (ip), vehicle: saline with Tween-80
[15] = dose: 120.0 mg/kg/injection, schedule: Q01DX005 (ip), vehicle: saline with Tween-80
[16] = dose: 240.0 mg/kg/injection, schedule: Q01DX005 (ip), vehicle: saline with Tween-80
[17] = dose: 12.5 mg/kg/injection, schedule: Q01DX009 (ip), vehicle: saline
[18] = dose: 25.0 mg/kg/injection, schedule: Q01DX009 (ip), vehicle: saline

With `COC(=O)c1c(C)cc(OC(=O)c2c(C)cc(O)c(C=O)c2O)c(C)c1O` the T/C (dose: 0.25 mg/kg/injection, schedule: Q01DX009 (ip), vehicle: saline with Tween-80) was 104 % of control, the T/C (dose: 0.5 mg/kg/injection, schedule: Q01DX009 (ip), vehicle: saline with Tween-80) was 92 % of control and the T/C (dose: 1.0 mg/kg/injection, schedule: Q01DX009 (ip), vehicle: saline with Tween-80) was 104 % of control. For the same molecule, the T/C [1] was 95 % of control, the T/C [2] was 90 % of control and the T/C [3] was 95 % of control.

For `C=C(C)C1Cc2c(ccc3c(=O)c4c(oc23)c(=O)oc2cc(OC)c(OC)cc24)O1` (configuration not stated), the T/C (dose: 100.0 mg/kg/injection, schedule: Q04DX003 (ip), vehicle: saline with Tween-80) was 103 % of control, the T/C (dose: 200.0 mg/kg/injection, schedule: Q04DX003 (ip), vehicle: saline with Tween-80) was 98 % of control and the T/C (dose: 400.0 mg/kg/injection, schedule: Q04DX003 (ip), vehicle: saline with Tween-80) was 105 % of control.

For `O=c1c2ccccc2nc(CN(CCCl)CCCl)n1-c1ccc(O)c(CN(CCCl)CCCl)c1`, the T/C (dose: 100.0 mg/kg/injection, schedule: Q01DX001 (ip), vehicle: saline with Tween-80) was 151 % of control, the T/C (dose: 200.0 mg/kg/injection, schedule: Q01DX001 (ip), vehicle: saline with Tween-80) was 155 % of control and the T/C (dose: 400.0 mg/kg/injection, schedule: Q01DX001 (ip), vehicle: saline with Tween-80) was 270 % of control.

For `C/C=C(\C)C(=O)O[C@@H]1[C@H]2C(C)=CC(=O)[C@@H](O)[C@]2(C)[C@H]2[C@@]3(O)OC[C@@]24[C@@H]1OC(=O)C[C@H]4[C@@H](C)[C@H]3O`, the T/C (dose: 0.25 mg/kg/injection, schedule: Q01DX009 (ip), vehicle: other) was 111 % of control and the T/C (dose: 0.6 mg/kg/injection, schedule: Q01DX009 (ip), vehicle: other) was 163 % of control.

In the case of `CCN(CC)CCOC(=O)c1ccc(N=C/C=C/C(C#N)=C/NOC)cc1`, the T/C [4] was 113 % of control, the T/C [5] was 101 % of control and the T/C [6] was 103 % of control.

For `COc1ccc2c3c(ccc2c1)C(=O)/C(=C\O)CC3`, the T/C (dose: 12.5 mg/kg/injection, schedule: Q01DX005 (ip), vehicle: Klucel (hydroxypropylcellulose) (HPC)) was 103 % of control, the T/C (dose: 25.0 mg/kg/injection, schedule: Q01DX005 (ip), vehicle: Klucel (hydroxypropylcellulose) (HPC)) was 93 % of control and the T/C [7] was 95 % of control and 97 % of control.

With `Clc1nc2nc(Cl)c(Cl)n2nc1Cl` the T/C (dose: 6.25 mg/kg/injection, schedule: Q04DX002 (ip), vehicle: saline) was 109 % of control, the T/C (dose: 12.5 mg/kg/injection, schedule: Q04DX002 (ip), vehicle: saline) was 107 % of control and the T/C (dose: 25.0 mg/kg/injection, schedule: Q04DX002 (ip), vehicle: saline) was 106 % of control.

`CC(C)N1CC(CCO)C(c2ccccc2)(c2ccccc2)C1` (configuration not stated) was tested, and the T/C (dose: 50.0 mg/kg/injection, schedule: Q01DX009 (ip), vehicle: Klucel (hydroxypropylcellulose) (HPC)) was 99 % of control, the T/C (dose: 100.0 mg/kg/injection, schedule: Q01DX009 (ip), vehicle: Klucel (hydroxypropylcellulose) (HPC)) was 97 % of control and the T/C (dose: 200.0 mg/kg/injection, schedule: Q01DX009 (ip), vehicle: Klucel (hydroxypropylcellulose) (HPC)) was 106 % of control.

For `COC(=O)C12CCCC1(C(=O)OC)N2N1C(=O)c2ccccc2C1=O` (configuration not stated), the T/C [7] was 100 % of control, the T/C [8] was 100 % of control and the T/C [9] was 105 % of control.

`O=C(O)c1ccc(NC(=O)c2ccco2)cc1` was tested, and the T/C [4] was 88 % of control, the T/C [5] was 97 % of control and the T/C [6] was 89 % of control.

In the case of `CCOC(=O)c1c[nH]c2ccc(N(CCCl)CCCl)cc12`, the T/C (dose: 5.33 mg/kg/injection, schedule: Q04DX003 (ip), vehicle: saline with Tween-80) was 160 % of control, the T/C (dose: 6.25 mg/kg/injection, schedule: Q01DX009 (ip), vehicle: saline with Tween-80) was 150 % of control and the T/C (dose: 8.0 mg/kg/injection, schedule: Q04DX003 (ip), vehicle: saline with Tween-80) was 160 % of control. The T/C (dose: 12.0 mg/kg/injection, schedule: Q04DX003 (ip), vehicle: saline with Tween-80) was 170 % of control, the T/C (dose: 12.5 mg/kg/injection, schedule: Q01DX009 (ip), vehicle: saline with Tween-80) was 181 % of control and the T/C (dose: 18.0 mg/kg/injection, schedule: Q04DX003 (ip), vehicle: saline with Tween-80) was 185 % of control. For the same molecule, the T/C [10] was 109 % of control.

In the case of `Cc1nc(SCC(N)=O)nc2sc(SCC(N)=O)nc12`, the T/C (dose: 100.0 mg/kg/injection, schedule: Q04DX002 (ip), vehicle: suspension in saline) was 96 % of control, the T/C (dose: 200.0 mg/kg/injection, schedule: Q04DX002 (ip), vehicle: suspension in saline) was 99 % of control and the T/C (dose: 400.0 mg/kg/injection, schedule: Q04DX002 (ip), vehicle: suspension in saline) was 98 % of control.

With `CC(NC(=O)C1CCCN1C(=O)OCc1ccccc1)C(=O)O` (configuration not stated) the T/C [11] was 106 % of control, the T/C [12] was 100 % of control and the T/C [13] was 100 % of control.

In the case of `O=c1oc2ccccc2cc1S(=O)(=O)c1ccccc1`, the T/C [14] was 94 % of control, the T/C [15] was 91 % of control and the T/C [16] was 91 % of control.

In the case of `Cc1c(C(=O)c2ccc3c(c2)OCO3)ccc2c1OCO2`, the T/C [7] was 105 % of control, the T/C [8] was 105 % of control and the T/C [9] was 98 % of control.

For `Nc1ccc(O)c2c1C(=O)c1c(O)ccc(N)c1C2=O`, the T/C [7] was 100 % of control, the T/C [8] was 105 % of control and the T/C [9] was 87 % of control.

For `CCCCN(CC)CC(CC)Nc1cc(OC)cc2cccnc12` (configuration not stated), the T/C [11] was 102 % of control, the T/C [12] was 95 % of control and the T/C [13] was 101 % of control.

In the case of `Cn1c(N)c(C(=O)CCc2ccccc2)c(=O)n(C)c1=O`, the T/C [11] was 97 % of control, the T/C [12] was 97 % of control and the T/C [13] was 96 % of control.

For `CCc1nc2nc(C)cc(C)n2n1`, the T/C [10] was 100 % of control, the T/C [4] was 97 % of control and the T/C [5] was 103 % of control.

With `CN1CCN(c2ccncc2S(=O)(=O)N2CCCC2)CC1` the T/C [1] was 107 % of control and the T/C [2] was 104 % of control.

With `COC1/C=C/OC2(C)Oc3c(C)c(O)c4c(O)c(c(/C=N/N5CC(C)(C)N(Cc6ccccc6)CC5(C)C)c(O)c4c3C2=O)NC(=O)C(C)=C/C=C/C(C)C(O)C(C)C(O)C(C)C(OC(C)=O)C1C` (configuration not stated) the T/C [4] was 107 % of control and the T/C [5] was 118 % of control.

For `CN(C)CCSc1n[nH]c(=O)[nH]c1=O`, the T/C (dose: 25.0 mg/kg/injection, schedule: Q01DX005 (ip), vehicle: distilled water + alcohol) was 101 % of control, the T/C (dose: 50.0 mg/kg/injection, schedule: Q01DX005 (ip), vehicle: distilled water + alcohol) was 95 % of control and the T/C (dose: 100.0 mg/kg/injection, schedule: Q01DX005 (ip), vehicle: distilled water + alcohol) was 100 % of control. For the same molecule, the T/C (dose: 200.0 mg/kg/injection, schedule: Q01DX005 (ip), vehicle: distilled water + alcohol) was 96 % of control.

`C=CCCCCCCCCCCCCCC1=NCC[N+]1(CCO)CC(O)COc1cc(Cl)c(Cl)c(Cl)c1` (configuration not stated) was tested, and the T/C [17] was 102 % of control, the T/C [18] was 106 % of control and the T/C [1] was 105 % of control and 108 % of control. The T/C [2] was 90 % of control.

With `CSc1nc(N)c2cnn(C3OC(CO)C(O)C3O)c2n1` (configuration not stated) the T/C [11] was 100 % of control, the T/C [12] was 109 % of control and the T/C [13] was 100 % of control.

For `C/C=C/COc1ccccc1C=O`, the T/C [1] was 99 % of control, the T/C [2] was 106 % of control and the T/C [3] was 100 % of control.

`CC(=O)OCC(COC(C)=O)(CN1C(=O)c2ccccc2C1=O)CN1C(=O)c2ccccc2C1=O` was tested, and the T/C [14] was 100 % of control, the T/C [15] was 102 % of control and the T/C [16] was 102 % of control.

For `COP(=O)(OC)O[Si](C)(C)CC[Si](C)(C)Cl`, the T/C [7] was 105 % of control, the T/C [8] was 105 % of control and the T/C [9] was 99 % of control.

For `O=C1C=CCCCC1(c1ccccc1)c1ccccc1`, the T/C (dose: 100.0 mg/kg/injection, schedule: Q04DX002 (ip), vehicle: saline with Tween-80) was 96 % of control, the T/C (dose: 200.0 mg/kg/injection, schedule: Q04DX002 (ip), vehicle: saline with Tween-80) was 96 % of control and the T/C (dose: 400.0 mg/kg/injection, schedule: Q04DX002 (ip), vehicle: saline with Tween-80) was 96 % of control.

In the case of `CCCC(=O)NN=C(C)C`, the T/C [17] was 104 % of control and the T/C [18] was 109 % of control.

For `CCn1c2ccccc2c2cc(/C=N/Nc3cc(C)nc4cc5c(cc34)OCO5)ccc21`, the T/C [7] was 100 % of control and the T/C [8] was 89 % of control.

`O=CNNc1ccc2nnc(Cl)n2n1` was tested, and the T/C (dose: 100.0 mg/kg/injection, schedule: Q04DX003 (ip), vehicle: saline) was 101 % of control, the T/C (dose: 200.0 mg/kg/injection, schedule: Q04DX003 (ip), vehicle: saline) was 97 % of control and the T/C (dose: 400.0 mg/kg/injection, schedule: Q04DX003 (ip), vehicle: saline) was 93 % of control.
